Experimental findings from patent US4374843A, “2-Guanidino-4-heteroarylthiazoles” (Pfizer Inc., priority 1981, dated 1983) are described below.

Counter-ions that a name gives are not always drawn.

In one assay the test system is Heidenhain pouch dogs. In words: Gastric acid antisecretory activity in pentagastrin-stimulated Heidenhain pouch dogs. The format is in vivo, dog. The settings on record: Canis lupus familiaris, iv, 1.5 h; 1 mg/kg intravenously, 90 min after start of pentagastrin infusion; lowest acid output after drug vs mean acid output immediately before drug; conscious fasted dogs; read-out: inhibited gastric acid secretion. As to the method:
The gastric acid antisecretory activity of compounds of the present invention was determined in overnight fasted, conscious Heidenhain pouch dogs. Pentagastrin (Pentavlon-Ayerst was used to stimulate acid output by continuous infusion into a superficial leg vein at doses earlier determined to stimulate near maximal acid output from the gastric pouch. Gastric juice was collected at 30 minute intervals following the start of a pentagastrin infusion and measured to the nearest 0.1 ml. Ten collections were taken for each dog during an experiment. Acid concentration was determined by titrating 1.0 ml of gastric juice to pH 7.4 with 0.1 N sodium hydroxide using an Autoburette and a glass electrode pH meter (Radiometer).
Drug or vehicle was given intraveneously 90 minutes following the start of the pentagastrin infusion, at a dose of 1 mg/kg. Gastric acid antisecretory effects were calculated by comparing the lowest acid output after drug administration with the mean acid output immediately before drug.

The target of another assay is T1, H2 -receptor (Cavia porcellus, UniProt P47747).
T1 construct: the heart removed and the right atria dissected free; from tissue; host or cells: isolated guinea pig right atria
T1 sequence (P47747 whole entry): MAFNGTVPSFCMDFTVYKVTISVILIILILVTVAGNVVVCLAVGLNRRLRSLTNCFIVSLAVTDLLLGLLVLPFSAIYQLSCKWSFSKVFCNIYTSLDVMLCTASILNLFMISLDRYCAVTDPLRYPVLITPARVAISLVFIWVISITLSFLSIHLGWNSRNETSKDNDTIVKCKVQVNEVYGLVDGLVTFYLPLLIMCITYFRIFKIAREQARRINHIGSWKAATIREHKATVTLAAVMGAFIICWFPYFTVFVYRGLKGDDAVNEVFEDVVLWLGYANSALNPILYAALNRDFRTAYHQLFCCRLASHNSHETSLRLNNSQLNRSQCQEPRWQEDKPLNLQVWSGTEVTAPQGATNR
Nature of the assay: Histamine-H2 antagonist activity in isolated guinea pig right atria. The format is cell-based. The following applies: histamine dose-response curve in presence and absence of antagonist, 32°; for Kb: Krebs-Henseleit buffer pH 7.4, read-out: pA2 (apparent dissociation constant of the H2-receptor antagonist) (converted). As to the method: The histamine-H2 antagonist activity of compounds of the present invention was determined by the following procedure:
Guinea pigs are killed rapidly with a blow to the head, the heart removed and the right atria dissected free. Atria are suspended, isometrically, in a temperature-controlled (32°±2°) tissue bath (10 ml containing oxygenated (95% O2; 5% CO2) Krebs-Henseleit buffer (pH 7.4) and are allowed to stabilize approximately one hour during which time the tissue bath is flushed several times. Individual atrial contractions are followed with a force-displacement transducer connected to a cardiotachometer and Grass polygraph recorder. After obtaining a dose-response curve to histamine, the bath containing each atrium is flushed several times with fresh buffer and the atria re-equilibrated to basal rates. Following the return to basal rate, test compounds are added at selected final concentrations and the histamine dose-response curve is again determined in the presence of antagonist. Results are expressed as dose-ratios, the ratio of histamine concentrations required to produce one-half of maximal stimulation in the presence and absence of antagonist, and the apparent dissociation constant of the H2 -receptor antagonist pA2, is determined.

Turning to `N=C(N)Nc1nc(-c2csc(N)n2)cs1` [Example 4, 2-Guanidino-4-(2-amino-4-thiazolyl)thiazole dihydrobromide], the inhibition at 1 mg/kg with Heidenhain pouch dogs was at least 15%. The Kb at H2 -receptor is under 2000 nM.

Turning to `N=C(N)Nc1nc(-c2cscn2)cs1` [Example 5, 2-Guanidino-4-(4-thiazolyl)thiazole], the inhibition at 1 mg/kg in the assay on Heidenhain pouch dogs is at least 15%. For the same molecule, the Kb on H2 -receptor is under 2000 nM.

Turning to `CNc1nc(-c2csc(NC(=N)N)n2)cs1` [Example 6, 2-Guanidino-4-(2-N-methylamino-4-thiazoyl)thiazole], in the assay with Heidenhain pouch dogs, the inhibition at 1 mg/kg is at least 15%. Moreover, at H2 -receptor, the Kb is under 2000 nM.

As to `CC(=O)Nc1nc(-c2csc(NC(=N)N)n2)cs1` [Example 7, 2-Guanidino-4-(2-N-acetylamino-4-thiazoyl)thiazole], in the assay on Heidenhain pouch dogs, the inhibition at 1 mg/kg is at least 15%. The Kb at H2 -receptor is under 2000 nM.

On to `N=C(N)Nc1nc(-c2nc(N)n[nH]2)cs1` [Example 11, 2-Guanidino-4-(3-amino-5-1,2,4-triazolyl)thiazole], for which the inhibition at 1 mg/kg with Heidenhain pouch dogs was at least 15%.

`Cc1n[nH]c(-c2csc(NC(=N)N)n2)n1` [Example 13, 2-Guanidino-4-(3-methyl-5-1,2,4-triazolyl)thiazole hemihydrate]: the inhibition at 1 mg/kg in the assay with Heidenhain pouch dogs was at least 15%.

Take `CCCc1n[nH]c(-c2csc(NC(=N)N)n2)n1` [Example 15, 2-Guanidino-4-(3-propyl-5-1,2,4-triazolyl)thiazole hemihydrate]: in the assay with Heidenhain pouch dogs, the inhibition at 1 mg/kg is at least 15%. At H2 -receptor, the Kb was under 2000 nM.

As for `CCc1n[nH]c(-c2csc(NC(=N)N)n2)n1` [Example 17, 2-Guanidino-4-(3-ethyl-5-1,24-triazolyl)thiazole], in the assay with Heidenhain pouch dogs, the inhibition at 1 mg/kg was at least 15%. In addition, the Kb on H2 -receptor is under 2000 nM.

With `N=C(N)Nc1nc(-c2c[nH]c(N)n2)cs1` [Example 20, 2-Guanidino-4-(2-amino-4-imidazolyl)thiazole], in the assay on Heidenhain pouch dogs, the inhibition at 1 mg/kg is at least 15%.

Consider `CNc1nc(-c2csc(NC(=N)N)n2)c[nH]1` [Example 21, 2-Guanidino-4-(2-N-methylamino-4-imidazoyl)thiazole dihydrochloride], for which the inhibition at 1 mg/kg in the assay with Heidenhain pouch dogs was at least 15%. Further, the Kb on H2 -receptor is under 2000 nM.

Turning to `CCNc1nc(-c2csc(NC(=N)N)n2)c[nH]1` [Example 22, 2-Guanidino-4-(2-N-ethylamino-4-imidazoyl)thiazole dihydrochloride], the inhibition at 1 mg/kg in the assay with Heidenhain pouch dogs was at least 15%. Moreover, the Kb on H2 -receptor was under 2000 nM.

In the case of `CCCNc1nc(-c2csc(NC(=N)N)n2)c[nH]1` [Example 23, 2-(Guanidino-4-(2-N-n-propylamino-4-imidazoyl)thiazoledihydrochloride], in the assay with Heidenhain pouch dogs, the inhibition at 1 mg/kg was at least 15%. Also, the Kb on H2 -receptor is under 2000 nM.

For the molecule `CC(C)Nc1nc(-c2csc(NC(=N)N)n2)c[nH]1` [Example 24, 2-Guanidino-4-(2-N-i-propylamino-4-imidazoyl)thiazole dihydrochloride], the inhibition at 1 mg/kg in the assay on Heidenhain pouch dogs is at least 15%. Further, the Kb on H2 -receptor is under 2000 nM.

Take `CCCCNc1nc(-c2csc(NC(=N)N)n2)c[nH]1` [Example 25, 2-Guanidino-4-(2-N-n-butylamino-4-imidazoyl)thiazole dihydrochloride]: in the assay with Heidenhain pouch dogs, the inhibition at 1 mg/kg is at least 15%. Also, on H2 -receptor, the Kb was under 2000 nM.

On to `N=C(N)Nc1nc(-c2c[nH]c(NCc3ccccc3)n2)cs1` [Example 26, 2-Guanidino-4-(2-N-benzylamino-4-imidazoyl)thiazole dihydrochloride], for which, in the assay with Heidenhain pouch dogs, the inhibition at 1 mg/kg was at least 15%. Also, the Kb at H2 -receptor was under 2000 nM.

On to `N=C(N)Nc1nc(-c2c[nH]c(NCCc3ccccc3)n2)cs1` [Example 27, 2-Guanidino-4-(2-N-phenethylamino-4-imidazoyl)thiazole dihydrochloride], for which the inhibition at 1 mg/kg in the assay on Heidenhain pouch dogs was at least 15%. For the same molecule, the Kb at H2 -receptor is under 2000 nM.

Turning to `CC(=O)Nc1nc(-c2csc(NC(=N)N)n2)c[nH]1` [Example 28, 2-Guanidino-4-(2-N-acetamido-4-imidazoyl)thiazole], the inhibition at 1 mg/kg in the assay with Heidenhain pouch dogs was at least 15%. In addition, at H2 -receptor, the Kb is under 2000 nM.

Consider `N=C(N)Nc1nc(-c2c[nH]cn2)cs1` [Example 31, 2-Guanidino-4-(4-imidazoyl)thiazole hydrobromide], for which, in the assay with Heidenhain pouch dogs, the inhibition at 1 mg/kg was at least 15%.

Consider `Cc1ncc(-c2csc(N=C(N)N)n2)[nH]1` [Example 37, 2-Guanidino-4-(2-methyl-4-imidazolyl)thiazole], for which the inhibition at 1 mg/kg in the assay on Heidenhain pouch dogs is at least 15%. Moreover, the Kb at H2 -receptor was under 2000 nM.

Turning to `Cc1nc[nH]c1-c1csc(NC(=N)N)n1` [Example 41, 2-Guanidino-4-(4-methyl-5-imidazolyl)thiazole hydrobromide], in the assay with Heidenhain pouch dogs, the inhibition at 1 mg/kg is at least 15%. In addition, the Kb on H2 -receptor is under 2000 nM.

`Cc1nc(C)c(-c2csc(NC(=N)N)n2)[nH]1` [Example 45, 2-Guanidino-4-(2,4-dimethyl-4-imidazolyl)thiazole hydrobromide hemihydrate]: the inhibition at 1 mg/kg in the assay with Heidenhain pouch dogs was at least 15%. The “pA2 (apparent dissociation constant of the H2-receptor antagonist)” value at H2 -receptor (Krebs-Henseleit buffer pH 7.4) is given as “greater than 5.7”.

For the molecule `N=C(N)Nc1nc(-c2c[nH]c(Nc3ccccc3)n2)cs1` [Example 46, 2-Guanidino-4-(2-N-phenylamino-4-imidazolyl)thiazole], at H2 -receptor, the Kb was under 2000 nM.

Turning to `N=C(N)Nc1nc(-c2c[nH]c(CO)n2)cs1` [Example 50, 2-Guanidino-4-(2-hydroxymethyl-4-imidazolyl)thiazole hydrobromide], the inhibition at 1 mg/kg in the assay on Heidenhain pouch dogs was at least 15%. Also, the Kb at H2 -receptor is under 2000 nM.
